Results published in patent US3969385A, “Ethyl 10-methoxy-3,7,11-trimethyldodeca-2,4-dienoate” (Zoecon Corporation, priority 1974, dated 1976).

Tests used:
Format in all cases: in vivo
[1] = tested on: Greater Wax Moth (Galleria mellonella) pupae; assay: Greater Wax Moth (Galleria mellonella) pupae, retention of pupal characters (graded-response score); conditions: for ID50: Galleria mellonella pupae <24 h old, 1 μl acetone solution applied to mouth-parts, scored after 10 days at 31°, 50% effect level; for Galleria ID50: Table 1 summary
Protocol: Greater Wax Moth (Galleria mellonella) pupae less than 24-hours old were collected after mature larvae from a mass colony were allowed to pupate in glass tubes treated with Siliclad solution (modification of a technique described by De Wilde et al., 1968) and then freed of the cocoon with a dilute Chlorox solution. Starvation of mature larvae was employed to produce highly synchronous pupation. One microliter of acetone solution containing 100, 10, 1, 0.1, 0.01, or 0.001μg of compound was applied to the mouth-parts of each test pupa. In each test series, the control pupae were treated only with 1 microliter of acetone. Treated pupae were allowed to develop for 10 days at 31° and then scored for both retention of pupal characters and adult emergence. For the retention of pupal characters, the following scoring system was used: 0=normal adult; 1=minor pupal rudimentary mandibles only; 2=as in 1, but also pupal cuticle patches at the base of the proboscis; 3=extensive pupal cuticle formation at base of proboscis, slight pupal characters in intersegmental membranes in legs; 4=proboscis entirely pupal, larger than normal, legs with extensive pupal zones; 5=merging pupal bands on legs, specimen with only a few adult setae, essentially "a second pupa."
The graded-response score was calculated as a percentage of the maximum attainable (n×5) and plotted against the dose on semilogarithmic paper. The ID50 dose is taken from the intersection of this plotted line with the 50% effect level.

[2] = tested on: Tobacco budworm (Heliothis virescens) larvae; assay: Tobacco budworm (Heliothis virescens) larvae, diet test, morphogenetic scoring; conditions: for ID50: Heliothis virescens unfed first instar larvae, compound mixed in diet, 25°, 16 hr photophase; for Heliothis ID50: Table 1 summary, in diet
Protocol: Tobacco budworm (Heliothis virescens) larvae were reared in mass culture on a modified Van der Zandt artificial diet based on agar, lima beans, split peas, torula yeast plus vitamins, minerals and bacteriostatic additives. Compounds to be tested were mixed as acetone solutions with this diet while it was still warm and not yet solidified (7.5 ml. of medium in 15 ml. tubes). Unfed first instar larvae were collected from the mass rearing and distributed in the glass tubes (one larva per tube, 15 tubes per dose level). The tubes with larvae were then capped with a firm cotton plug and placed on racks in a culture room at 25° and 16 hr photophase (low intensity fluorescent light). The normal interval until pupation under these conditions was ca. 16 days.
Individual specimens were preserved in ethanol within a few days after pupation and stored until the entire series was thus preserved. The test results were then evaluated with the following scoring system: 0= normal pupa; 1=pupa of normal shape and appearance except for very minor abnormalities such as minute rudiments of larval mouthparts, larval tubercles, etc. The ultimate viability of these pupa was not investigated; 2=unviable intermediates between larvae and pupae ranging from almost perfect supernumerary larval instars (frequently with some pupal cuticle on the antennae only) to pupae with pronounced prolegs, patches of larval cuticle, etc. […] The results were added and expressed as a percentage of the possible total. ID50 doses were determined by interpolation on semilogarithmic paper. Dead larvae were generally excluded from the score, unless death was obviously a consequence of morphogenetic abnormalities and the specimens could be scored as above.

Philosamia cynthia eggs = assay: Philosamia cynthia eggs, hatch prevention; conditions: Table 1 summary
Protocol: Philosamia cynthia eggs less than 24-hours old were removed from the colony and placed on black electrical tape, 15 eggs per tape. One microliter of acetone solution containing […] of compound was applied to each egg. The control eggs were treated only with acetone. The eggs were kept at 28°C for 10 days at which time the number of eggs hatched was observed and plotted against the dosed on semilogarithmic paper. The ID50 dose is taken from the intersection of this plotted line with the 50% hatch prevented line.

Structure (SMILES)	ID50 [1]	Galleria ID50 [1]	ID50 [2]	Heliothis ID50 [2]	Cynthia ID50 (Philosamia cynthia eggs)
CCOC(=O)C=C(C)C=CCC(C)CCC(OC)C(C)C (stereo not shown) [ethyl 10-methoxy-3,7,11-trimethyldodeca-2,4-dienoate]	0.0030 μg per pupa	0.0030 μg/pupa	0.024 parts per million	0.024 ppm	0.000032 μg/egg
CCOC(=O)C=C(C)C=CCC(C)CCCC(C)(C)OC (stereo not shown) [ethyl 11-methoxy-3,7,11-trimethyldodeca-2,4-dienoate]	0.180 μg per pupa	0.180 μg/pupa	0.340 parts per million	0.340 ppm	0.00077 μg/egg
